Earlier results as cited in US20180327482A1, “METHODS AND COMPOSITIONS FOR THE TREATMENT OF HCMV” (priority 2013, published 2018).

System: cells latently infected with HCMV
Details: Weekes et al., Science 340:199-202 (2013)

Question: For `CC[C@]1(O)C[C@H]2CN(CCc3c([nH]c4ccccc34)[C@@](C(=O)OC)(c3cc4c(cc3OC)N(C=O)[C@H]3[C@@](O)(C(=O)OC)[C@H](OC(C)=O)[C@]5(CC)C=CCN6CC[C@]43[C@@H]65)C2)C1` [Vincristine], which “Elimination of cells latently infected with HCMV” value is on record?
Answer: The value was “can be used therapeutically to eliminate cells latently infected with HCMV”.
